Assay results reported in PubChem BioAssay (NCI).
Values joined by “and” are separate entries in the source; they are usually repeats but may differ in a detail not shown here. Equal entries are not always repeated.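 Compound exposure: 48 hours, 5 concentrations, 96-well plates. At the GI50, growth is halved. TGI is the concentration that stops growth completely.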 *1 amine or outer side, *2 acyl side, *3 side chain or, on linkers, in order; H or OH if unused. Where a SMILES comes first, the peptide text is derived from it. Bridges are numbered along the chain shown (N, C = ends). [ ]: non-standard residue; d: D form. The star is where a group is joined. ξ: configuration not given here. X34 = O=C(C(CCCCNO[*:3])N[*:1])[*:2]; Fmoc = O=C(OCC1c2ccccc2-c2ccccc21)*; ξW = NC(Cc1c[nH]c2ccccc12)C(=O)O; ξP = O=C(O)C1CCCN1

Columns and labels:
Assay in all cases: NCI tumour cell line growth inhibition, 48 h
KM12 colon = system: KM12 colon
BT-549 breast = system: BT-549 breast
PC-3 prostate = system: PC-3 prostate
SW-620 colon = system: SW-620 colon
SF-268 CNS = system: SF-268 CNS
NCI/ADR-RES ovarian = system: NCI/ADR-RES ovarian
RPMI-8226 leukemia = system: RPMI-8226 leukemia
SK-OV-3 ovarian = system: SK-OV-3 ovarian
NCI-H23 lung = system: NCI-H23 lung
786-0 renal = system: 786-0 renal
MOLT-4 leukemia = system: MOLT-4 leukemia
UACC-257 melanoma = system: UACC-257 melanoma
SR leukemia = system: SR leukemia

SMILES | TGI (KM12 colon) | TGI (BT-549 breast) | TGI (PC-3 prostate) | TGI (SW-620 colon) | TGI (SF-268 CNS) | TGI (NCI/ADR-RES ovarian) | TGI (RPMI-8226 leukemia) | TGI (SK-OV-3 ovarian) | TGI (NCI-H23 lung) | TGI (786-0 renal) | TGI (MOLT-4 leukemia) [µM] | TGI (UACC-257 melanoma) | TGI (SR leukemia) [µM] | GI50 (PC-3 prostate) | GI50 (NCI/ADR-RES ovarian) | GI50 (SK-OV-3 ovarian) | GI50 (NCI-H23 lung) | GI50 (UACC-257 melanoma) | GI50 (SR leukemia)
NC(=O)CNC(=O)C1CCCN1C(=O)C1CCCCNOC(=O)CC[C@@H](NC(=O)OCC2c3ccccc3-c3ccccc32)C(=O)NC(Cc2c[nH]c3ccccc23)C(=O)N1 (stereo not given in full) (Fmoc-[dE][ξW][X34][ξP]G-NH2; ester 1-3) | > 100 µM | > 100 µM | > 100 µM | > 100 µM | > 100 µM | > 100 µM | > 100 µM | > 100 µM | > 100 µM | > 100 µM | > 100 | > 100 µM | > 100 | – | – | – | – | – | –
CN(CCC#N)c1ccc(/C=C2\SC(=S)NC2=O)cc1 | > 100 µM | 79.2 µM | > 100 µM | > 100 µM | > 100 µM | > 100 µM | > 100 µM | > 100 µM | > 100 µM | > 100 µM | > 100 | > 100 µM | > 100 | – | – | – | – | – | –
Cc1ccc([C@@H]2[C@@H](C(=O)c3ccccn3)[C@H](c3ccc(C)cc3)C[C@](O)(c3ccccn3)[C@H]2C(=O)c2ccccn2)cc1 | > 100 µM | > 100 µM | > 100 µM | > 100 µM | > 100 µM | > 100 µM | > 92.6 µM | > 39.2 µM | > 100 µM | 9.15 µM | > 100 | > 100 µM | > 100 | – | – | – | – | – | –
COc1cccc2c(N)c3cccc(C(=O)NCCN(C)C)c3nc12 | 3.59 µM | 4.95 µM | 1.7 µM | 2.71 µM | 0.51 µM | 12.4 µM | 3.87 µM | 1.97 µM | 1.02 µM | 1.82 µM | 0.264 | 3.41 µM | 1.12 | – | – | – | – | – | –
COCOC1/C=C/CCCC#C[C@H](C)C(=O)CC1 (stereo not given in full) | 17 µM | 27.1 µM | 21.5 µM | 5.64 µM | 26.5 µM | 29 µM | 7.63 µM | 29.3 µM | 19.4 µM | 13.5 µM | > 29.4 | 17.8 µM | > 33.2 | – | – | – | – | – | –
CC(=O)OCC1OC(OC(C)(C)CC/C=C(\C)[C@@H]2C/C=C(\C)CC/C=C(\C)CC2)C(O)C(O)C1OC(C)=O (stereo not given in full) | > 59.7 µM and 36.8 µM | 88.6 µM and 34.8 µM | > 94.8 µM and 25.8 µM | > 31.6 µM and 50.7 µM | 98.7 µM and 38.3 µM | > 100 µM and 38.7 µM | 70.6 µM and > 100 µM | > 100 µM and 34 µM | > 100 µM and 25.3 µM | 96.8 µM and 58.8 µM | 49.1 | > 100 µM and 38.5 µM | > 100 | 35.8 µM and 13.1 µM | 45.8 µM and 19.5 µM | > 100 µM and 18.5 µM | 46.2 µM and 12.7 µM | 99.3 µM and 19.1 µM | 36.3 µM and > 100 µM
O=C(O)c1cc2c(cc1CC(Cc1ccc3c(c1)CCC3)C(=O)O)CCC2 (stereo not given) | > 100 µM | > 100 µM | > 100 µM | > 100 µM | > 100 µM | > 100 µM | > 100 µM | > 100 µM | > 100 µM | > 100 µM | > 100 | > 100 µM | > 100 | – | – | – | – | – | –
CC(C)(N=NC(C)(C)C(=O)NCCO)C(=O)NCCO | > 100 µM | > 100 µM | > 100 µM | > 100 µM | > 100 µM | > 100 µM | > 100 µM | > 100 µM | > 100 µM | > 100 µM | > 100 | > 100 µM | > 100 | – | – | – | – | – | –
C=C1CC(COc2cc(=O)oc3ccccc23)(c2ccccc2)OC1=O (stereo not given) | 12.7 µM | 2.97 µM | 5.9 µM | 3.35 µM | 29.7 µM | 25.1 µM | 4.01 µM | 16.1 µM | 4.92 µM | 2.96 µM | > 20.8 | 6.65 µM | > 28 | – | – | – | – | – | –
Cc1nc(-c2ccc([N+](=O)[O-])cc2)cn2c1nc1ccccc12 | > 100 µM | > 100 µM | > 100 µM | > 100 µM | > 100 µM | > 100 µM | > 100 µM | > 100 µM | > 100 µM | > 100 µM | > 100 | > 100 µM | > 100 | – | – | – | – | – | –
OC1C2[C@@H](O)CCCN2C[C@@H](O)[C@H]1O (stereo not given in full) | > 100 µM | > 100 µM | > 100 µM | > 100 µM | > 100 µM | > 100 µM | > 100 µM | > 100 µM | > 100 µM | > 100 µM | > 100 | > 100 µM | > 100 | – | – | – | – | – | –
Cc1c(F)c(N)c2c(=O)cc(-c3ccc(NC(=O)CN(C)C)c(F)c3)oc2c1F | > 100 µM | > 100 µM | > 100 µM | > 74.6 µM | > 100 µM | > 100 µM | > 83 µM | > 100 µM | > 100 µM | > 100 µM | > 71.8 | > 100 µM | 61 | – | – | – | – | – | –
COc1cccc(-c2cc(=O)c3ccccc3o2)c1N | > 100 µM | > 100 µM | > 100 µM | > 100 µM | > 100 µM | > 100 µM | > 100 µM | > 100 µM | > 100 µM | > 100 µM | > 100 | > 100 µM | > 100 | – | – | – | – | – | –
